Source: patent publication US6716881B2, “Carbanilides used as pesticides” (Bayer Aktiengesellschaft, priority 1996, dated 2004)

Columns and labels:
Plasmopara viticola = assay: Plasmopara test (grape vines)/protective; type: in vivo; conditions: protective, application rate 100 g/ha, evaluation 6 days after inoculation
Method: Plasmopara Test (Grape Vines)/Protective
(§1) To produce a suitable preparation of active compound, 1 part by weight of active compound is mixed with the stated amounts of solvent and emulsifier and the concentrate is diluted with water to the desired concentration.
To test for protective activity, young plants are sprayed with the preparation of active compound at the stated application rate. After the spray-coating has dried on, the plants are inoculated with an aqueous spore suspension of Plasmopara viticola and then remain in an incubation cabin at approximately 20° C. and 100% relative atmospheric humidity for 1 day. The plants are subsequently placed in a greenhouse at approximately 21° C. and approximately 90% relative atmospheric humidity for 5 days. The plants are then moistened and placed in an incubation cabin for 1 day.
Evaluation is carried out 6 days after the inoculation. 0% means an efficacy which corresponds to that of the control, while an efficacy of 100% means that no infection is observed.

Pyrenophora teres = Pyrenophora teres test (barley)/protective; type: in vivo; conditions: protective, application rate 125 g/ha, evaluation 7 days after inoculation
Method: Pyrenophora teres Test (Barley)/Protective
(§2) To produce a suitable preparation of active compound, 1 part by weight of active compound is mixed with the stated amounts of solvent and emulsifier, and the concentrate is diluted with water to the desired concentration.
To test for protective activity, young plants are sprayed with the preparation of active compound at the stated application rate.
After the spray-coating has dried on, the plants are sprayed with a conidia suspension of Pyrenophora teres.
The plants remain in an incubation cabin at 20° C. and 100% relative atmospheric humidity for 48 hours.
The plants are placed in a greenhouse at a temperature of approximately 20° C. in a relative atmospheric humidity of approximately 80%.
Evaluation is carried out 7 days after the inoculation. 0% means an efficacy which corresponds to that of the untreated control, while an efficacy of 100% means that no infection is observed.

[1] = test system: R-strain of Pseudocercosporella herpotrichoides; assay: Pseudocercosporella herpotrichoides test; R-strain (wheat)/protective; type: in vivo; conditions: protective, application rate 250 g/ha, evaluation 21 days after inoculation
Method: Pseudocercosporella herpotrichoides Test; R-Strain (Wheat)/Protective
as §1
To test for protective activity, young plants are sprayed with the preparation of active compound at stated application rates.
After the spray-coating has dried on, the plants are inoculated at the base of the stem with spores of the R-strain of Pseudocercosporella herotrichoides.
The plants are placed in a greenhouse at a temperature of approximately 10° C. and a relative atmospheric humidity of approximately 80%.
Evaluation is carried out 21 days after the inoculation. 0% means an efficacy which corresponds to that of the control, while an efficacy of 100% means that no infection is observed.

Podosphaera leucotricha = assay: Podosphaera test (apple)/protective; type: in vivo; conditions: protective, 100 ppm in spray liquor, evaluation 10 days after inoculation
Method: Podosphaera Test (Apple)/Protective
as §2
To test for protective activity, young plants are sprayed with the preparation of active compound until dew-moist. After the spray-coating has dried on, the plants are inoculated by dusting with conidia of the causative organism of apple mildew Podosphaera leucotricha.
The plants are then placed in a greenhouse at 23° C. and a relative atmospheric humidity of approximately 70%.
Evaluation is carried out 10 days after the inoculation. 0% means an efficacy which corresponds to that of the untreated control, while an efficacy of 100% means that no infection is observed.

Venturia inaequalis = assay: Venturia test (apple)/protective (Example K, application rate); type: in vivo; conditions: protective, application rate 100 g/ha, evaluation 12 days after inoculation
Method: Venturia Test (Apple)/Protective
as §2
To test for protective activity, young plants are sprayed with the preparation of active compound at the stated application rate. After the spray-coating has dried on, the plants are inoculated with an aqueous Conidia suspension of the causative organism of apple scab Venturia inaequalis and then remain in an incubation cabin at approximately 20° C. and 100% relative atmospheric humidity for 1 day.
The plants are subsequently placed in a greenhouse at approximately 21° C. and a relative atmospheric humidity of approximately 90%.
Evaluation is carried out 12 days after the inoculation. 0% means an efficacy which corresponds to that of the control, while an efficacy of 100% means that no infection is observed.

[2] = test system: caterpillars of the owlett moth (Spodoptera frugiperda); assay: Spodoptera test; type: in vivo; conditions: cabbage leaves dipped, active compound concentration 0.1 %
Method: (§3) To produce a suitable preparation of active compound, 1 part by weight of active compound is mixed with the stated amount of solvent and the stated amount of emulsifier, and the concentrate is diluted with water to the desired concentration.
Cabbage leaves (Brassica oleracea) are treated by being dipped into the preparation of active compound of the desired concentration and are populated with caterpillars of the owlett moth (Spodoptera frugiperda) while the leaves are still moist.
After the desired period of time, the kill in % is determined. 100% means that all the caterpillars have been killed; 0% means that none of the caterpillars have been killed.

Coniophora puteana = assay: Inhibitory test with giant colonies of Basidiomycetes (Coniophora puteana); type: cell-based; conditions: after 3 or 7 days at 26° C., vs untreated control; for inhibition at 1 ppm: 1 ppm in agar, read-out: Inhibition of the growth of the hypha in % with Coniophora puteana at an active compound concentration of 1 ppm; for inhibition at 3 ppm: 3 ppm in agar, read-out: Inhibition of the growth of the hypha in % with Coniophora puteana at an active compound concentration of 3 ppm; for inhibition at 6 ppm: 6 ppm in agar, read-out: Inhibition of the growth of the hypha in % with Coniophora puteana at an active compound concentration of 6 ppm
Method: (§4) Inhibitory Test with Giant Colonies of Basidiomycetes.
(§5) To produce a suitable preparation of active compound, 0.2 parts by weight of active compound are admixed with 99.8 parts by weight of the abovementioned solvent.
(§6) An agar which has been prepared using malt extract peptone is mixed in the liquid state with the preparation of active compound at the particular desired application rate. After the agar has set, the resulting nutrient medium is incubated at 26° C. with pieces of mycelium which had been punched out of colonies of Coniophora puteana or Coriolus versicolor.
(§7) Evaluation is carried out after 3 or 7 days' storage at 26° C. by measuring the growth of the hypha and scoring the resulting inhibition in percent in comparison to the untreated control. 0% means an inhibition of growth which corresponds to that of the untreated control, while an inhibition of growth of 100% means that no growth of the hypha is observed.

Coriolus versicolor = assay: Inhibitory test with giant colonies of Basidiomycetes (Coriolus versicolor); type: cell-based; conditions: Trametes versicolor, after 3 or 7 days at 26° C., vs untreated control; for inhibition at 1 ppm: 1 ppm in agar, read-out: Inhibition of the growth of the hypha in % with Coriolus versicolor at an active compound concentration of 1 ppm; for inhibition at 3 ppm: 3 ppm in agar, read-out: Inhibition of the growth of the hypha in % with Coriolus versicolor at an active compound concentration of 3 ppm; for inhibition at 6 ppm: 6 ppm in agar, read-out: Inhibition of the growth of the hypha in % with Coriolus versicolor at an active compound concentration of 6 ppm
Method: as §4, §5, §6, §7

[3] = test system: peach aphids (Myzus persicae); assay: Myzus test; type: in vivo; conditions: infested cabbage leaves dipped, active compound concentration 0.1 %
Method: as §3
Cabbage leaves (Brassica oleracea) which are heavily infested by peach aphids (Myzus persicae) are treated by being dipped into the preparation of active compound of the desired concentration.
After the desired period of time, the kill in % is determined. 100% means that all the aphids have been killed, 0% means that none of the aphids have been killed.

CC1=C(C(=O)Nc2ccccc2CSc2ccccc2)SCCO1
Efficacy in % (Plasmopara viticola): 90%

Cn1cc(C(=O)Nc2ccccc2C=Cc2ccccc2)c(C(F)F)n1 [drawing 528]
Efficacy in % (Pyrenophora teres): 83%

Cc1ccc(SCc2ccccc2NC(=O)c2cn(C)nc2C(F)F)cc1 [drawing 529]
Efficacy in % (Pyrenophora teres): 75%

C/C(=N\OCc1ccccc1NC(=O)c1cn(C)nc1C)c1cccc(C(F)(F)F)c1
Efficacy in % [1]: 90%

Cc1ccc(SCc2ccccc2NC(=O)c2ccccc2C(F)(F)F)cc1
Efficacy in % (Plasmopara viticola): 95%

Cc1nn(C)cc1C(=O)Nc1ccccc1Oc1ccccc1 [drawing 519]
Efficacy in % at an active compound concentration in the spray liquor of 100 ppm (Podosphaera leucotricha): 96%

CC1=C(C(=O)Nc2ccccc2Oc2ccccc2)SCCO1
Efficacy in % (Venturia inaequalis): 100%

O=C(Nc1ccccc1Oc1ccccc1)c1ccccc1C(F)(F)F [drawing 518]
Efficacy in % at an active compound concentration in the spray liquor of 100 ppm (Podosphaera leucotricha): 100%

Cc1ccc(OCc2ccccc2NC(=O)c2cn(C)nc2C)cc1
Degree of kill in % after 7 d [2]: 100%

Cc1ccc(SCc2ccccc2NC(=O)c2cn(C)nc2C(F)F)cc1 [Example 46]
inhibition at 1 ppm (Coniophora puteana): 80% | inhibition at 3 ppm (Coniophora puteana): 100% | inhibition at 6 ppm (Coniophora puteana): 100% | inhibition at 1 ppm (Coriolus versicolor): 100% | inhibition at 3 ppm (Coriolus versicolor): 100% | inhibition at 6 ppm (Coriolus versicolor): 100% | melting point: 108 °C

Cn1cc(C(=O)Nc2ccccc2C=Cc2ccccc2)c(C(F)F)n1 [Example 20]
inhibition at 1 ppm (Coniophora puteana): 100% | inhibition at 3 ppm (Coniophora puteana): 100% | inhibition at 6 ppm (Coniophora puteana): 100% | inhibition at 1 ppm (Coriolus versicolor): 100% | inhibition at 3 ppm (Coriolus versicolor): 100% | inhibition at 6 ppm (Coriolus versicolor): 100% | melting point: 122 °C

Cc1cccc(OCc2ccccc2NC(=O)c2cn(C)nc2C(F)(F)F)c1 [drawing 539]
Degree of kill in % after 7 d [3]: 95%
